According to the OligoGym collection:
Values joined by “and” are separate entries in the source; they are usually repeats but may differ in a detail not shown here. Identical values can stand only once. After the bases stand the sugars from the 5' end (letter, count) and the backbone: PS all phosphorothioate, else s phosphorothioate and o phosphodiester by linkage. Methylation of C is not given here. k = constrained ethyl (cEt); d = 2'-deoxy (DNA)

target: MALAT1; conditions: ASO, A431, 0.005 µM

Sequence | target mRNA inhibition
TCCCTTCAGGATCATT (sugars k3 d10 k3, PS) | 10%
GGAGGCAAAAAGTAGT (sugars k3 d10 k3, PS) | 9%
TCAATTAATGCTAGTC (sugars k3 d10 k3, PS) | 35%
GAGGGACAGTAGGTAT (sugars k3 d10 k3, PS) | 19%
TCCCATAATTGTAGTT (sugars k3 d10 k3, PS) | 27%
AAACAACATATTGCCG (sugars k3 d10 k3, PS) | 20%
AGGATTCTAGACAGAC (sugars k3 d10 k3, PS) | 72% and 71%
AATCATTGGGAGTTAC (sugars k3 d10 k3, PS) | 24%
CCGCTTGAGATTTGGG (sugars k3 d10 k3, PS) | 28%
GCCTACTCAAGCTCTT (sugars k3 d10 k3, PS) | 20%
GCTCGCTTGCTCCTCA (sugars k3 d10 k3, PS) | 39%
TATCTGTTAACAGCTG (sugars k3 d10 k3, PS) | 41%
CTTATTTAGAGGGCCT (sugars k3 d10 k3, PS) | 36%
TGAAAGAACTAGTGGT (sugars k3 d10 k3, PS) | 23%
GTCTACAAGTTACATG (sugars k3 d10 k3, PS) | 13%
CAAATTGCACTCGCTC (sugars k3 d10 k3, PS) | 34%
GACGCAATTCTCCCTG (sugars k3 d10 k3, PS) | 27%
GTAGATTCCGTAACTT (sugars k3 d10 k3, PS) | 73% and 54% and 50%
AACTGGAAGCTCCTTC (sugars k3 d10 k3, PS) | 17%
AATCAGGTGAGGCTGA (sugars k3 d10 k3, PS) | -26%
ACATATTGCCGACCTC (sugars k3 d10 k3, PS) | 43%
AGGTTACCATAAGTAA (sugars k3 d10 k3, PS) | 10%
GGCCGTTGGCTGCCAG (sugars k3 d10 k3, PS) | 21%

Sequence | target mRNA inhibition
AACTAAGCTACTATAT (sugars k3 d10 k3, PS) | -2%
ACAATCACTACTCCAA (sugars k3 d10 k3, PS) | 31%
ACTTGAATGCAAACTA (sugars k3 d10 k3, PS) | 11%
AACACCCGGAAATCGG (sugars k3 d10 k3, PS) | 26%
CTCCAGCATAAAGCTG (sugars k3 d10 k3, PS) | 12%
CAGATGCAAGTTAAAC (sugars k3 d10 k3, PS) | 40%
CCGGAGCAGGAAGAAA (sugars k3 d10 k3, PS) | 23%
CTTTCCATTACGCAAC (sugars k3 d10 k3, PS) | 0%
GACAAGCAATTAACTT (sugars k3 d10 k3, PS) | 66% and 53%
CGCAGGGATTTGAACC (sugars k3 d10 k3, PS) | 15%
GCTCGCCTCCTCCGTG (sugars k3 d10 k3, PS) | 27%
AGAGTGTTCGCAGACA (sugars k3 d10 k3, PS) | 57%
ACTCAAAGTCCAATGC (sugars k3 d10 k3, PS) | 31%
AGTTATATTAGGTTCT (sugars k3 d10 k3, PS) | 22%
AGGTTCTAGTTTTACT (sugars k3 d10 k3, PS) | 16%
ATCTGCGGCCCCCCAG (sugars k3 d10 k3, PS) | -8%
TACAACAAGTAAGCCC (sugars k3 d10 k3, PS) | 20%
GGCTGACACTTCTCTT (sugars k3 d10 k3, PS) | 52% and 64%
AACCTACAACACCCGG (sugars k3 d10 k3, PS) | 34%
TACCTCTTAAAGCACT (sugars k3 d10 k3, PS) | -17%
GGGAATACTCTTCCAA (sugars k3 d10 k3, PS) | 14%
CACAAGGATCCAAGCT (sugars k3 d10 k3, PS) | 18%
CCCACAGGAACAAGTC (sugars k3 d10 k3, PS) | 14%

Sequence | target mRNA inhibition
CATTGCCTCTTCATTG (sugars k3 d10 k3, PS) | 36%
ATTTTAAAAAGGCTCG (sugars k3 d10 k3, PS) | 27%
CTGGAAAAGCTAGGGA (sugars k3 d10 k3, PS) | -13%
CATTGGGAGTTACTTG (sugars k3 d10 k3, PS) | 32%
GTTACACCTTGAGTCA (sugars k3 d10 k3, PS) | 53%
ACTTATCCCTAACATG (sugars k3 d10 k3, PS) | 13%
TATGAACCAAAGCTGC (sugars k3 d10 k3, PS) | 7%
CATACCTTAACATCTT (sugars k3 d10 k3, PS) | 32%
ACTATCACAATTCTTA (sugars k3 d10 k3, PS) | 13%
TAACTGATCTGACTTT (sugars k3 d10 k3, PS) | 26%
CACGGGCTGTCTGCTT (sugars k3 d10 k3, PS) | 18%
ACCAGGAGTGCCAACC (sugars k3 d10 k3, PS) | 8%
ACTGGGAATACTCTTC (sugars k3 d10 k3, PS) | 28%
CATCAGTAGTAAGAAT (sugars k3 d10 k3, PS) | 14%
ATGGCTTTGTCTCCGA (sugars k3 d10 k3, PS) | 15%
AGCCTATAAGGACAGC (sugars k3 d10 k3, PS) | 23%
CATTGGCACACAGCAC (sugars k3 d10 k3, PS) | 21%
CGGTTAAAAATAGGTT (sugars k3 d10 k3, PS) | 6%
ACTGGTACACCCAGTG (sugars k3 d10 k3, PS) | -8%
AGTTTGCTCACATGCC (sugars k3 d10 k3, PS) | 65% and 53%
CTTTAAGTTCTCTGGC (sugars k3 d10 k3, PS) | 64% and 82%
TTGCCCTTCTATTGGT (sugars k3 d10 k3, PS) | 11%
CTACAAGTTACATGTT (sugars k3 d10 k3, PS) | -9%

Sequence | target mRNA inhibition
CGCAGACAAAGTTTCT (sugars k3 d10 k3, PS) | 57%
CCCGCACGGAAATTTT (sugars k3 d10 k3, PS) | 17%
ACATCAAGGATGTATA (sugars k3 d10 k3, PS) | -6%
AACATCTGATTCTAAC (sugars k3 d10 k3, PS) | 27%
ACCTTCTGAACCGGAG (sugars k3 d10 k3, PS) | 22%
GCTGATAAACTCACTG (sugars k3 d10 k3, PS) | 55% and 65%
TAAATGACGCAATTCT (sugars k3 d10 k3, PS) | 8%
GACCAAACTGCAGAGT (sugars k3 d10 k3, PS) | 3%
AATTACTTCCGTTACG (sugars k3 d10 k3, PS) | 43%
TCAAGCACCGCTTGAG (sugars k3 d10 k3, PS) | -12% and 8%
TTCAGACCTTCTGAAC (sugars k3 d10 k3, PS) | -8%
TAAGAACTCCACAGCT (sugars k3 d10 k3, PS) | 41%
ACAGAAGTCTCGGGCT (sugars k3 d10 k3, PS) | 19%
ATTGGTTACCAATAAT (sugars k3 d10 k3, PS) | 4%
TGCCATCTACTATTTC (sugars k3 d10 k3, PS) | 19%
TTCGGCTTCTTTTATT (sugars k3 d10 k3, PS) | 44%
AAAACCCCCGGAACTT (sugars k3 d10 k3, PS) | 9%
GAAATCCCTTCAGGAT (sugars k3 d10 k3, PS) | 14%
CAAACTGCTTACAGAT (sugars k3 d10 k3, PS) | 31%
TGCTCCCCGCCTGAGC (sugars k3 d10 k3, PS) | 24%
CTGATTCTAACAGCAC (sugars k3 d10 k3, PS) | 55% and 49% and 50%
GCAGCGGGATCAGAAC (sugars k3 d10 k3, PS) | 34%
TTACTTGCCAACTTGG (sugars k3 d10 k3, PS) | 70% and 68%

Sequence | target mRNA inhibition
TGCCTACCGCACAGCT (sugars k3 d10 k3, PS) | 19%
GAATTAAGACCAAGGG (sugars k3 d10 k3, PS) | 36%
TAAACGGGTCATCAAA (sugars k3 d10 k3, PS) | 34%
CCTACCGCACAGCTCG (sugars k3 d10 k3, PS) | 3%
CATACAAACTGCTTAC (sugars k3 d10 k3, PS) | 29%
TGCTTGGGAAATCTTA (sugars k3 d10 k3, PS) | 23%
CGGACTTTCTCCCCCA (sugars k3 d10 k3, PS) | -9%
CTCTGATCTGCGGCCC (sugars k3 d10 k3, PS) | -6%
GGATTTGAACCCCGTC (sugars k3 d10 k3, PS) | 30%
GCCTGGAATTATTATA (sugars k3 d10 k3, PS) | 31%
TGCGGCCCCCCAGTTG (sugars k3 d10 k3, PS) | -6%
AGCTTCATCAAACACT (sugars k3 d10 k3, PS) | 3%
TAACAGGCCACTGCCA (sugars k3 d10 k3, PS) | 11%
AGCACCTGGGTCAGCT (sugars k3 d10 k3, PS) | -5%
GGTTATAGCTTGACAA (sugars k3 d10 k3, PS) | 78% and 95%
GGGAGTTACTTGCCAA (sugars k3 d10 k3, PS) | 10%
GCAGTTTCTATAGTAG (sugars k3 d10 k3, PS) | 45%
AGTTAATGTCAGCCCA (sugars k3 d10 k3, PS) | 34%
GTCTCATACACTCACT (sugars k3 d10 k3, PS) | -4%
TACCTTTTACTCTGAT (sugars k3 d10 k3, PS) | 42%
GGTGAATTCAACTGGA (sugars k3 d10 k3, PS) | 49%
CAAGGCACTGATCACT (sugars k3 d10 k3, PS) | 48%
